According to the supplement of paper PMC10307832:

How the values were obtained:
Assay in all cases: relative viability (nuclei count vs DMSO), 5 days (fraction); higher = more cells survive
[1] = compound: CC1=CC(=CC=C1)NC2=NC(=CS2)C3=CC=NC=C3 + CC1(C)CCC(c2ccc(Cl)cc2)=C(CN2CCN(c3ccc(C(=O)NS(=O)(=O)c4ccc(N[C@H](CCN5CCOCC5)CSc5ccccc5)c(S(=O)(=O)C(F)(F)F)c4)cc3)CC2)C1 [Navitoclax] (partner 0.5 µM)
Method in brief: (§1)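 Relative viability is defined as nuclei in treated wells over nuclei in vehicle wells. Duplicate plates were run and medians reported. Lung cancer cell lines in 1536-well plates were dosed by pin tool one day after seeding, with one drug or with a fixed anchor-drug dose plus five library-drug doses (not always all listed) in √10 steps, and nuclei were counted after 5 days.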

[2] = compound: CC1=CC(=CC=C1)NC2=NC(=CS2)C3=CC=NC=C3 + CS(=O)(=O)CCNCc1ccc(-c2ccc3ncnc(Nc4ccc(OCc5cccc(F)c5)c(Cl)c4)c3c2)o1 [Lapatinib] (partner 2 µM)
Method in brief: as §1

[3] = compound: Cc1ccc(NC(=O)c2ccc(CN3CCN(C)CC3)cc2)cc1Nc1nc(-c2cccnc2)cs1 [Masitinib] + CCNC(=O)c1noc(-c2cc(C(C)C)c(O)cc2O)c1-c1ccc(CN2CCOCC2)cc1 [Luminespib] (partner 0.01 µM)
Method in brief: as §1

[4] = compound: Cc1ccc(NC(=O)c2ccc(CN3CCN(C)CC3)cc2)cc1Nc1nc(-c2cccnc2)cs1 [Masitinib] + Cc1nc(Nc2ncc(C(=O)Nc3c(C)cccc3Cl)s2)cc(N2CCN(CCO)CC2)n1 [Dasatinib] (partner 0.075 µM)
Method in brief: as §1

Cell Line | relative viability ([1]; first compound 0.253 µM) | relative viability ([1]; first compound 0.8 µM) | relative viability ([1]; first compound 2.53 µM) | relative viability ([1]; first compound 8 µM) | relative viability ([2]; first compound 0.253 µM) | relative viability ([2]; first compound 0.8 µM) | relative viability ([2]; first compound 2.53 µM) | relative viability ([2]; first compound 8 µM) | relative viability ([3]; first compound 0.01 µM) | relative viability ([3]; first compound 0.03162 µM) | relative viability ([3]; first compound 0.1 µM) | relative viability ([3]; first compound 0.3162 µM) | relative viability ([3]; first compound 1 µM) | relative viability ([4]; first compound 0.01 µM) | relative viability ([4]; first compound 0.03162 µM) | relative viability ([4]; first compound 0.1 µM) | relative viability ([4]; first compound 0.3162 µM) | relative viability ([4]; first compound 1 µM) | relative viability ([1]; first compound 0.08 µM) | relative viability ([2]; first compound 0.08 µM)
LU99A | 0.861 | 0.838 | 0.835 | 0.978 | 1.02 | 1.01 | 0.903 | 0.868 | 0.3 | 0.219 | 0.271 | 0.353 | 0.191 | 0.583 | 0.619 | 0.557 | 0.503 | 0.503 | – | –
COR-L23 | 0.804 | 0.722 | 0.965 | 0.973 | 0.878 | 0.651 | 1.07 | 0.881 | 0.598 | 0.598 | 0.798 | 0.931 | 0.579 | 0.411 | 0.419 | 0.531 | 0.437 | 0.543 | 0.982 | 0.709
NCI-H2126 | 0.912 | 0.849 | 0.909 | 0.778 | 0.667 | 0.68 | 0.594 | 0.572 | 0.888 | 1 | 0.951 | 0.89 | 0.794 | 0.681 | 0.537 | 0.653 | 0.369 | 0.525 | 0.828 | 0.593
LC-2-ad | 0.379 | 0.383 | 0.464 | 0.278 | 0.86 | 0.948 | 0.853 | 0.788 | 0.918 | 1.18 | 1.04 | 0.916 | 0.929 | 0.47 | 0.587 | 0.639 | 0.523 | 0.554 | 0.395 | 0.953
NCI-H1975 | 1.13 | 0.879 | 0.895 | 0.726 | 0.821 | 0.657 | 0.651 | 0.544 | 0.246 | 0.287 | 0.22 | 0.156 | 0.124 | 0.427 | 0.403 | 0.427 | – | 0.279 | 1.16 | 0.723
NCI-H1944 | 1.01 | 1.05 | 1.01 | 1.01 | 0.783 | 0.812 | 0.626 | 0.613 | – | 0.829 | – | 0.576 | 0.697 | – | 0.204 | – | 0.215 | 0.213 | 1.03 | 0.707
NCI-H2085 | 1.13 | 1.12 | 1.12 | 0.809 | 0.639 | 0.707 | 0.67 | 0.674 | 0.368 | 0.428 | 0.423 | 0.403 | 0.443 | 0.215 | 0.249 | 0.242 | 0.278 | 0.215 | 0.959 | 0.658
COR-L 105 | 0.779 | 0.634 | 0.809 | 0.456 | 0.41 | 0.382 | 0.408 | 0.389 | 0.758 | 0.677 | 0.776 | 0.686 | 0.66 | 0.37 | 0.338 | 0.305 | 0.288 | 0.286 | 0.573 | 0.289
SK-LU-1 | 1.22 | 0.636 | 1.06 | 1.35 | 1.05 | – | 0.835 | 0.937 | 0.208 | 0.195 | 0.2 | 0.221 | 0.193 | 0.157 | 0.202 | 0.174 | 0.195 | 0.18 | 0.837 | 0.994
